Laboratory results: ChEMBL document CHEMBL5537169, “Structure-Activity Relationships and Discovery of (S)-6-Isopropyl-2-methoxy-3-(3-methoxypropoxy)-10-oxo-5,10-dihydro-6H-pyrido[1,2-h][1,7]naphthyridine-9-carboxylic Acid (AB-452), a Novel Orally Available HBV RNA Destabilizer” (J Med Chem, 2024)

How the values were obtained:
HepG2 2.2.15 = test: Cytotoxicity against human HepG2.2.15 cells by Cell-titer Glo luminescent assay; format: functional
Hepatitis B virus = test: Antiviral activity against HBV infected in human HepG2.2.15 cells assessed as inhibition of HBsAg level incubated for 6 days by microplate-based chemiluminescence immunoassay; format: functional, organism-based; conditions: HepG2 2.2.15, 144 h
[1] = Drug accumulation in CD-1 mouse liver at 10 mg/kg,po measured at 0.083 to 24 hrs post administration by LC-MS/MS analysis; format: ADME, organism-based; conditions: in vivo, time 0.083-24 hrs
[2] = Apparent volume of distribution at steady state in CD-1 mouse at 10 mg/kg,po measured at 0.083 to 24 hrs post administration by LC-MS/MS analysis; format: ADME, organism-based; conditions: in vivo, time 0.083-24 hrs
[3] = Cmax in CD-1 mouse at 10 mg/kg,po measured at 0.083 to 24 hrs post administration by LC-MS/MS analysis; format: ADME, organism-based; conditions: in vivo, time 0.083-24 hrs
[4] = Oral bioavailability in Sprague-Dawley rat at 10 mg/kg measured at 0.083 to 24 hrs by LC-MS/MS analysis; format: ADME, organism-based; conditions: in vivo, po, 10 mg/kg, time 0.083-24 hrs
[5] = Drug accumulation in Sprague-Dawley rat liver at 10 mg/kg,po measured at 0.083 to 24 hrs post administration by LC-MS/MS analysis; format: ADME, organism-based; conditions: in vivo, time 0.083-24 hrs
[6] = Clearance in CD-1 mouse liver microsomes at 0.3 uM pre-incubated for 10 mins followed by NADPH addition incubated for 60 mins by LC-MS/MS analysis; format: ADME, Microsome; conditions: time 70 min, read-out: CLH
[7] = AUCinfinity in Sprague-Dawley rat at 10 mg/kg,po measured at 0.083 to 24 hrs post administration by LC-MS/MS analysis; format: ADME, organism-based; conditions: in vivo, po, 10 mg/kg, time 0.083-24 hrs
[8] = Clearance in CD-1 mouse at 2 mg/kg,iv measured at 0.083 to 24 hrs post administration by LC-MS/MS analysis; format: ADME, organism-based; conditions: in vivo, time 0.083-24 hrs
[9] = Half life in CD-1 mouse at 10 mg/kg,po measured at 0.083 to 24 hrs post administration by LC-MS/MS analysis; format: ADME, organism-based; conditions: in vivo, time 0.083-24 hrs
[10] = AUCinfinity in CD-1 mouse at 10 mg/kg,po measured at 0.083 to 24 hrs post administration by LC-MS/MS analysis; format: ADME, organism-based; conditions: in vivo, time 0.083-24 hrs
[11] = Tmax in CD-1 mouse at 10 mg/kg,po measured at 0.083 to 24 hrs post administration by LC-MS/MS analysis; format: ADME, organism-based; conditions: in vivo, time 0.083-24 hrs
[12] = Cmax in Sprague-Dawley rat at 10 mg/kg,po measured at 0.083 to 24 hrs post administration by LC-MS/MS analysis; format: ADME, organism-based; conditions: in vivo, po, 10 mg/kg, time 0.083-24 hrs
[13] = Half life in Sprague-Dawley rat at 10 mg/kg,po measured at 0.083 to 24 hrs post administration by LC-MS/MS analysis; format: ADME, organism-based; conditions: in vivo, po, 10 mg/kg, time 0.083-24 hrs
[14] = Oral bioavailability in CD-1 mouse at 10 mg/kg measured at 0.083 to 24 hrs by LC-MS/MS analysis; format: ADME, organism-based; conditions: in vivo, time 0.083-24 hrs
[15] = Apparent volume of distribution at steady state in Sprague-Dawley rat at 10 mg/kg,po measured at 0.083 to 24 hrs post administration by LC-MS/MS analysis; format: ADME, organism-based; conditions: in vivo, time 0.083-24 hrs
[16] = Tmax in Sprague-Dawley rat at 10 mg/kg,po measured at 0.083 to 24 hrs post administration by LC-MS/MS analysis; format: ADME, organism-based; conditions: in vivo, po, 10 mg/kg, time 0.083-24 hrs
[17] = Clearance in human liver microsomes at 0.3 uM pre-incubated for 10 mins followed by NADPH addition incubated for 60 mins by LC-MS/MS analysis; format: ADME, Microsome; conditions: time 70 min, read-out: CLH

SMILES | EC50 (Hepatitis B virus) [µM] | microsomal CLint at 0.3 µM [6] [µL/min/mg] | CC50 (HepG2 2.2.15) [µM] | also measured
COc1nc2c(cc1OCCCO)C[C@@H](C(C)C)n1cc(C(=O)O)c(=O)cc1-2 | 0.007 | – | > 50 | –
COc1cc2c(cn1)-c1cc(=O)c(C(=O)O)cn1C(C(C)C)C2 (stereo unspecified) | 0.96 | – | > 50 | –
CC(C)[C@@H]1COc2cc(OCCCCO)c(Cl)cc2-c2cc(=O)c(C(=O)O)cn21 | 0.014 | 1 | > 50 | –
CCC1(C(C)C)Cc2cc(OCCCOC)c(OC)nc2-c2cc(=O)c(C(=O)O)cn21 (stereo unspecified) | 0.006 | – | > 50 | –
CC(C)[C@@H]1COc2cc(OCC(C)(C)CO)c(Cl)cc2-c2cc(=O)c(C(=O)O)cn21 | 0.012 | 17 | > 50 | –
COc1cc2c(cc1OC)-c1cc(=O)c(C(=O)O)cn1[C@H](C(C)C)C2 | 0.0073 | – | – | –
COCCOc1cc2c(cc1Cl)-c1cc(=O)c(C(=O)O)cn1[C@@H](C(C)C)CO2 | 0.78 | – | > 50 | –
CC(C)[C@@H]1COc2cc(OCCCN3CCOCC3)c(Cl)cc2-c2cc(=O)c(C(=O)O)cn21 | 0.14 | 1 | > 50 | –
COc1cc2c(cc1Cl)-c1cc(=O)c(C(=O)O)cn1[C@H](C(C)C)CO2 | 0.038 | 1 | > 50 | –
COCCCOc1cc2c(cc1C)-c1cc(=O)c(C(=O)O)cn1[C@H](C(C)C)CO2 | 0.039 | 4 | 39 | microsomal CLint at 0.3 µM [17]: 8 µL/min/mg

Second part, led by results:

EC50 (Hepatitis B virus) [µM] | microsomal CLint at 0.3 µM [6] [µL/min/mg] | SMILES | CC50 (HepG2 2.2.15) [µM] | also measured
0.006 | 10 | CCc1cc2c(cc1OCCCOC)OC[C@@H](C(C)C)n1cc(C(=O)O)c(=O)cc1-2 | 33 | Ct [1]: 5 ng/g; Vdss(app) [2]: 1.1 L/kg; Cmax [3]: 844 ng/mL; F [4]: 24%; Ct [5]: 47 ng/g; AUC [7]: 2860 ng·h/mL; clearance [8]: 21 mL/min/kg; half-life [9]: 0.8 h; AUC(0-inf) [10]: 7080 ng·h/mL; Tmax [11]: 2.4 h; Cmax [12]: 351 ng/mL; t1/2 [13]: 2.7 h; bioavailability [14]: 91%; Vdss(app) [15]: 0.9 L/kg; Tmax [16]: 3.3 h
0.087 | – | CC(C)[C@@H]1COc2cc(OCC(F)(F)F)c(Cl)cc2-c2cc(=O)c(C(=O)O)cn21 | 36 | microsomal CLint at 0.3 µM [17]: 4 µL/min/mg
0.053 | – | COCCOc1cc2c(cc1Cl)-c1cc(=O)c(C(=O)O)cn1[C@H](C(C)C)CO2 | > 50 | –
0.007 | – | COc1cc2c(nc1OC)-c1cc(=O)c(C(=O)O)cn1[C@H](C(C)C)C2 | > 50 | –
2.4 | – | CC(C)C1Cc2sccc2-c2cc(=O)c(C(=O)O)cn21 (stereo unspecified) | > 50 | –
3.5 | – | COc1cc2c(cc1Cl)-c1cc(=O)c(C(=O)O)cn1[C@@H](C(C)C)CO2 | > 50 | –
3 | – | COCc1nc2c(s1)CC(C(C)C)n1cc(C(=O)O)c(=O)cc1-2 (stereo unspecified) | > 50 | –
